The source of these data is US6359006B2, “Amphiphilic fluorine derivatives with telomeric structures; preparation procedure and biomedical applications” (Alliance Pharmaceutical Corp., priority 1990, dated 2002).

The data set is described as follows: Solubility. The format is physicochemical.

Take `O=C(CCSCCC(F)(F)C(F)(F)C(F)(F)C(F)(F)C(F)(F)C(F)(F)F)NC(CO)(CO)CO` [monoadduct 14, N-[(trihydrozymethyl)methyl]4-thia-6-(n-perfluorohezyl) hexanamide]: for the setting “organic solvents such as AcOEt, CH3CN, CH3OH, CHCl3”, the “solubility in organic solvents (in words)” value was “soluble in organic solvents”. Further, the “solubility in water (in words)” value (water) is reported as “insoluble in water”.
